Experimental data taken from US7179831B2, “5-[3-(4-benzyloxyphenylthio)-fur-2-yl]-imidazolidin-2, 4-dione and analogues as inhibitors of macrophage elastase” (Quest Pharmaceutical Services, priority 2004, dated 2007).

Tests used:
Format in all cases: biochemical
Conditions in all cases: recombinant human active domain, substrate 4 uM, room temperature
MMP-13 = target: T1, MMP-13 (Homo sapiens, UniProt P45452); test: MMP inhibitory assay, fluorescent substrate, MMP-13
T1 construct: All the enzymes are recombinant human active domains from E. coli (Biomol); purchased Biomol; host or cells: E. coli
Method: (§1) The enzymatic activities of MMPs were assayed according to manufacture protocols (Biomol Reseaerch Laboratory, Inc. E-mail: info@biomol.com). All the enzymes are recombinant human active domains from E. coli (Biomol). The fluorescent substrate has the sequence of (7-methoxycoumarin-4-yl) acetyl-Pro-Leu-Gly-Leu-N-3-(2,4-dinitrophenyl)-L-α,β-diaminopropionyl-Ala-Arg-NH2.AcOH. All the assays were conducted at room temperature with 96 well flat bottom black plate (Nalge Nunc International, Catalog number, 465200). Briefly, certain amount of enzyme in 89 ul of assay buffer (50 mM Hepes, 10 mM CaCl2, 0.05% Brij 35, pH 7.5) was incubated with (7 concentration per set) or without inhibitor (in 1 ul of DMSO, or 1 ul DMSO only) for 20 min. Then the enzymatic reaction was initiated by the addition of the substrate (40 uM in 10 ul of assay buffer and the final concentration of the substrate is 4 uM). The activity was determined by measuring the fluorescence at Ex/Em=328 nm/393 nm and it was linear within 2 hrs. The fluorescence was read at 0 and 20 or 40 min. The reading at 0 time would be considered as the background and subtracted from the final reading. The IC50 was obtained by plotting the fluorescences versus the concentrations of the inhibitors of each assay with Prism software. […] Mechanism studies reveal that the inhibitors are competitive. For competitive inhibitor: Ki=IC50/(1+[S]/Km)

MMP-3 = target: T2, MMP-3 (Homo sapiens, UniProt P08254); test: MMP inhibitory assay, fluorescent substrate, MMP-3
T2 construct: All the enzymes are recombinant human active domains from E. coli (Biomol); purchased Biomol; host or cells: E. coli
T2 sequence (P08254 100-272 limits assumed): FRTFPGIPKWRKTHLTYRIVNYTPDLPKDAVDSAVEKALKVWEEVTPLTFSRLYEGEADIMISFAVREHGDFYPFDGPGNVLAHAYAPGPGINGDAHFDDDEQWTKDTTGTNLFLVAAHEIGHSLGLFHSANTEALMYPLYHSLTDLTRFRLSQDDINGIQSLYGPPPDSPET
Method: as §1

MMP-1 = target: T3, MMP-1 (Homo sapiens, UniProt P03956); test: MMP inhibitory assay, fluorescent substrate, MMP-1
T3 construct: All the enzymes are recombinant human active domains from E. coli (Biomol); purchased Biomol; host or cells: E. coli
T3 sequence (P03956 100-269 limits assumed): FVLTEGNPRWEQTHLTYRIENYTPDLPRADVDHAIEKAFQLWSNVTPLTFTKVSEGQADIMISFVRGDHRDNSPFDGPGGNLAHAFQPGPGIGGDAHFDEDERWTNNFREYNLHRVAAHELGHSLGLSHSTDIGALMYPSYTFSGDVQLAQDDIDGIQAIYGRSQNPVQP
Method: as §1

MMP-9 = target: T4, MMP-9 (Homo sapiens, UniProt P14780); test: MMP inhibitory assay, fluorescent substrate, MMP-9
T4 construct: All the enzymes are recombinant human active domains from E. coli (Biomol); purchased Biomol; host or cells: E. coli
T4 sequence (P14780 107-444 limits assumed): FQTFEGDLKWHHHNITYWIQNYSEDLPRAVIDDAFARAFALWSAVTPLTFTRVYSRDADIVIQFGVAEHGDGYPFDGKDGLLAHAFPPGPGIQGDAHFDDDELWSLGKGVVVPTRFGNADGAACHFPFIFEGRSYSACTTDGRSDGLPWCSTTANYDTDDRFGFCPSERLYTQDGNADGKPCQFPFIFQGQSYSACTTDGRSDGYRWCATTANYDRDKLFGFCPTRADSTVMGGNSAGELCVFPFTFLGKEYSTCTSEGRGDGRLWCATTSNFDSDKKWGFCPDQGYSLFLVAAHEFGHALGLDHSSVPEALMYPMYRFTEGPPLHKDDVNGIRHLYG
Method: as §1

MMP-2 = target: T5, MMP-2 (Homo sapiens, UniProt P08253); test: MMP inhibitory assay, fluorescent substrate, MMP-2
T5 construct: All the enzymes are recombinant human active domains from E. coli (Biomol); purchased Biomol; host or cells: E. coli
T5 sequence (P08253 110-446 limits assumed): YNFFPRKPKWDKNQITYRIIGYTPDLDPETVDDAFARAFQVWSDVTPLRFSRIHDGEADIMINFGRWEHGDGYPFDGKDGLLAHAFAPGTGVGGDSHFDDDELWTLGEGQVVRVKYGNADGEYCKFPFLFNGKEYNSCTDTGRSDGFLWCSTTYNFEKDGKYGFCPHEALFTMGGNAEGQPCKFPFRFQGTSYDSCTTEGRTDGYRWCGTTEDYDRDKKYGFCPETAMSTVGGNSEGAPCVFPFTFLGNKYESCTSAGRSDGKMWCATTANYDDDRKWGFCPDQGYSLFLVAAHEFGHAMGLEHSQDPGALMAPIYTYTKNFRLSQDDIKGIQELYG
Method: as §1

MMP-12 = target: T6, MMP-12 (Homo sapiens, UniProt P39900); test: MMP inhibitory assay, fluorescent substrate, MMP-12
T6 construct: All the enzymes are recombinant human active domains from E. coli (Biomol); purchased Biomol; host or cells: E. coli
T6 sequence (P39900 106-263 limits assumed): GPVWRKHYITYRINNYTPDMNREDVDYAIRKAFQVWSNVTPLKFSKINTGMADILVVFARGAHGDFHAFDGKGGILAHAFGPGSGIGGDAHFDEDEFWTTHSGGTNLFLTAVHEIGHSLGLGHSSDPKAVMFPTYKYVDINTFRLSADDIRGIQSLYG
Method: as §1
In the assay conditions, [S](4 uM) is smaller than Km (20 uM for MMP-12). So Ki equal to IC50/1.2, which is little smaller than IC50, or roughly equal to IC50.

MMP-7 = target: T7, MMP-7 (Homo sapiens, UniProt P09237); test: MMP inhibitory assay, fluorescent substrate, MMP-7
T7 construct: All the enzymes are recombinant human active domains from E. coli (Biomol); purchased Biomol; host or cells: E. coli
T7 sequence (P09237 95-267): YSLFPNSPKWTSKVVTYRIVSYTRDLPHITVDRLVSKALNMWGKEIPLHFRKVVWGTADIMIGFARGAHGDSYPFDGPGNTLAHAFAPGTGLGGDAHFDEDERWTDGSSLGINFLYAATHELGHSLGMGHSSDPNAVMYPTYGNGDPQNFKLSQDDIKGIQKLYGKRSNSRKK
Method: as §1

Compound `Cc1ccccc1COc1ccc(Sc2ccoc2C2NC(=O)NC2=O)cc1` (stereo not drawn) [IVp, 5-{3-[4-(2-Methyl-benzyloxy)phenylthio]fur-2-yl}imidazolidine-2,4-dione] has an IC50 (MMP-13) of 4.26 µM, an IC50 (MMP-3) of 4.04 µM and an IC50 (MMP-1) greater than 40 µM. It also gave an IC50 (MMP-9) of 2.08 µM, an IC50 (MMP-2) of 7.03 µM and an IC50 (MMP-12) of 0.042 µM.

`COc1cccc(COc2ccc(Sc3ccoc3C3NC(=O)NC3=O)cc2)c1` (stereo not drawn) [IVe, 5-{3-[4-(3-Methoxybenzyloxy)phenylthio]fur-2-yl}imidazolidine-2,4-dione] showed an IC50 (MMP-13) of 2.44 µM, an IC50 (MMP-3) of 3.62 µM and an IC50 (MMP-1) greater than 40 µM. The IC50 (MMP-9) was 3.76 µM, the IC50 (MMP-2) was 2.01 µM and the IC50 (MMP-12) was 0.019 µM. For the same compound, the IC50 (MMP-7) was 27.4 µM.

With `O=C1NC(=O)C(c2occc2Sc2ccc(OCc3ccc(OCc4ccccc4)cc3)cc2)N1` (stereo not drawn) [IVb, 5-{3-[4-(4-Benzyloxybenzyloxy)phenylthio]fur-2-yl}imidazolidine-2,4-dione] the IC50 (MMP-13) was 0.335 µM, the IC50 (MMP-3) was 0.383 µM and the IC50 (MMP-1) was greater than 40 µM. For the same compound, the IC50 (MMP-9) was 4.47 µM, the IC50 (MMP-2) was 1.18 µM and the IC50 (MMP-12) was 0.084 µM. The IC50 (MMP-7) was 1.88 µM.

In the case of `COc1ccccc1COc1ccc(Sc2ccoc2C2NC(=O)NC2=O)cc1` (stereo not drawn) [IVf, 5-{3-[4-(2-Methoxybenzyloxy)phenylthio]fur-2-yl}imidazolidine-2,4-dione], the IC50 (MMP-13) is reported as 11.6 µM, the IC50 (MMP-1) is reported as greater than 40 µM and the IC50 (MMP-9) is reported as 30.4 µM. It also gave an IC50 (MMP-2) of 233 µM and an IC50 (MMP-12) of 0.202 µM.

`COc1cc(COc2ccc(Sc3ccoc3C3NC(=O)NC3=O)cc2)cc(OC)c1` (stereo not drawn) [IVg, 5-{3-[4-(3,5-dimethoxybenzoxy)phenylthio]fur-2yl}imidazoline-2,4-dione] showed an IC50 (MMP-13) of 16.8 µM, an IC50 (MMP-3) of 7.95 µM and an IC50 (MMP-1) greater than 40 µM. It also gave an IC50 (MMP-9) of 35.8 µM and an IC50 (MMP-12) of 0.264 µM.

For `O=C1NC(=O)C(c2occc2Sc2ccc(OCc3ccccc3)cc2)N1` (stereo not drawn) [IVa, 5-[3-(4-Benzoxyphenylthio)fur-2-yl]imidazoline-2,4-dione], the IC50 (MMP-13) was 1.07 µM, the IC50 (MMP-3) was 2.1 µM and the IC50 (MMP-1) was greater than 40 µM. For the same compound, the IC50 (MMP-9) was 0.727 µM, the IC50 (MMP-2) was 0.447 µM and the IC50 (MMP-12) was 0.013 µM. For the same compound, the IC50 (MMP-7) was 63.7 µM.

`O=C1NC(=O)C(c2occc2Sc2ccc(OCc3cccc(Cl)c3)cc2)N1` (stereo not drawn) [IVi, 5-{3-[4-(3-Chlorobenzyloxy)phenylthio]fur-2-yl}imidazolidine-2,4-dione] gave an IC50 (MMP-13) of 0.773 µM, an IC50 (MMP-3) of 0.298 µM and an IC50 (MMP-1) greater than 40 µM. For the same compound, the IC50 (MMP-9) was 1.44 µM, the IC50 (MMP-2) was 1.02 µM and the IC50 (MMP-12) was 0.022 µM. It also gave an IC50 (MMP-7) of 676 µM.

For `Cc1cccc(COc2ccc(Sc3ccoc3C3NC(=O)NC3=O)cc2)c1` (stereo not drawn) [IVo, 5-{3-[4-(3-Methyl-benzyloxy)phenylthio]fur-2-yl}imidazolidine-2,4-dione], the IC50 (MMP-13) was 1.95 µM, the IC50 (MMP-3) was 1.35 µM and the IC50 (MMP-1) was greater than 40 µM. It also gave an IC50 (MMP-9) of 2.95 µM, an IC50 (MMP-2) of 1.11 µM and an IC50 (MMP-12) of 0.011 µM. It also gave an IC50 (MMP-7) of 46.7 µM.

`COc1ccc(COc2ccc(Sc3ccoc3C3NC(=O)NC3=O)cc2)cc1` (stereo not drawn) [IVd, 5-{3-[4-(4-Methoxybenzyloxy)phenylthio]fur-2-yl}imidazolidine-2,4-dione] gave an IC50 (MMP-13) of 0.26 µM, an IC50 (MMP-3) of 0.318 µM and an IC50 (MMP-1) greater than 40 µM. The IC50 (MMP-9) was 0.74 µM, the IC50 (MMP-2) was 0.422 µM and the IC50 (MMP-12) was 0.01 µM. For the same compound, the IC50 (MMP-7) was 7.6 µM.

Compound `O=C1NC(=O)C(c2occc2Sc2ccc(OCc3cccc(C(F)(F)F)c3)cc2)N1` (stereo not drawn) [IVq, 5-{3-[4-(3-Trifluoromethyl-benzyloxy)phenylthio]fur-2yl}imidazolidine-2,4-dione] has an IC50 (MMP-13) of 2.06 µM, an IC50 (MMP-3) of 3.31 µM and an IC50 (MMP-1) greater than 40 µM. It also gave an IC50 (MMP-9) of 2.88 µM, an IC50 (MMP-2) of 2.13 µM and an IC50 (MMP-12) of 0.034 µM.

Compound `Cc1ccc(COc2ccc(Sc3ccoc3C3NC(=O)NC3=O)cc2)cc1` (stereo not drawn) [IVk, 5-{3-[4-(4-Methylbenzyloxy)phenylthio]fur-2-yl}imidazolidine-2,4-dione] has an IC50 (MMP-13) of 0.643 µM, an IC50 (MMP-3) of 0.586 µM and an IC50 (MMP-1) greater than 40 µM. For the same compound, the IC50 (MMP-9) was 0.472 µM, the IC50 (MMP-2) was 0.612 µM and the IC50 (MMP-12) was 0.015 µM. It also gave an IC50 (MMP-7) of 30.9 µM.

Work on `O=C1NC(=O)C(c2occc2Sc2ccc(OCc3ccc(-c4ccccc4)cc3)cc2)N1` (stereo not drawn) [IVc, 5-{3-[4-(4-biphenylmethoxy)phenylthio]fur-2-yl}imidazoline-2,4-dione] yielded an IC50 (MMP-13) of 0.707 µM, an IC50 (MMP-3) of 35.9 µM and an IC50 (MMP-1) greater than 40 µM. For the same compound, the IC50 (MMP-2) was 1.74 µM, the IC50 (MMP-12) was 0.131 µM and the IC50 (MMP-7) was 1.04 µM.

With `O=C1NC(=O)C(c2occc2Sc2ccc(OCc3ccccc3Cl)cc2)N1` (stereo not drawn) [IVj, 5-{3-[4-(2-Chlorobenzyloxy)phenylthio]fur-2-yl}imidazolidine-2,4-dione] the IC50 (MMP-13) was 2.41 µM, the IC50 (MMP-3) was 1.09 µM and the IC50 (MMP-1) was greater than 40 µM. It also gave an IC50 (MMP-9) of 1.13 µM, an IC50 (MMP-2) of 1.84 µM and an IC50 (MMP-12) of 0.057 µM.

With `O=C1NC(=O)C(c2occc2Sc2ccc(OCc3ccc(Cl)cc3)cc2)N1` (stereo not drawn) [IVh, 5-{3-[4-(4-Chlorobenzyloxy)phenylthio]fur-2-yl}imidazolidine-2,4-dione] the IC50 (MMP-13) was 0.329 µM, the IC50 (MMP-3) was 0.157 µM and the IC50 (MMP-1) was greater than 40 µM. For the same compound, the IC50 (MMP-9) was 0.255 µM, the IC50 (MMP-2) was 0.235 µM and the IC50 (MMP-12) was 0.007 µM. For the same compound, the IC50 (MMP-7) was 7.45 µM.
